# Measured values from patent publication US20240327393A1 (SIRONAX LTD., priority 2021, published 2024).
# Where two headings read alike, the source gives them in different places.
# System: HT-1080 (ATCC, CCL-121) cells
# Assay: HT-1080 cell viability assay with ferroptosis inducer RSL3 (Cell Titer-Glo)
# Type: cell-based
# Conditions: HT-1080 cells treated with RSL3, 3-fold, 10-point dilution, 1.1 μM highest concentration, read-out: EC50 (nM), ferroptosis inhibitory activity
# Method in brief: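 EC50 was derived by sigmoidal dose-response regression of CellTiter-Glo luminescence viability, expressed relative to untreated wells. Compounds were tested in a ten-point, threefold dilution series (highest 1.1 μM) in the presence of the ferroptosis inducer RSL3. HT-1080 cells had been seeded at 6000 per well and grown overnight first.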
SMILES,"EC50 (Homo sapiens, Table 2) [nM]","EC50 (Homo sapiens, Table 3) [nM]",other results
"CN(C)CCn1c(=O)oc2ccc(Nc3ccc(N4CCC(C(F)(F)F)CC4)cc3)cc21 [Compound 429, 3-(2-(dimethylamino)ethyl)-5-((4-(4-(trifluoromethyl)piperidin-1-yl)phenyl)amino)benzo[d]oxazol-2(3H)-one]",0.1 to 100,–,–
"CC1CN(c2ccc(Nc3ccc4c(c3)CN(C)C4)cc2)CC(C)O1 (stereo not drawn) [Compound 430, N-(4-(2,6-dimethylmorpholino)phenyl)-2-methylisoindolin-5-amine]",0.1 to 100,–,–
"CC1CN(c2ccc(Nc3ccc4c(c3)CNC4)cc2)CC(C)O1 (stereo not drawn) [Compound 431, N-(4-(2,6-dimethylmorpholino)phenyl)isoindolin-5-amine]",0.1 to 100,–,–
"CC1CN(c2ccc(Nc3ccc4c(=O)n(C)[nH]c4c3)cc2)CC(C)O1 (stereo not drawn) [Compound 432, 6-((4-(2,6-dimethylmorpholino)phenyl)amino)-2-methyl-1H-indazol-3(2H)-one]",0.1 to 100,–,–
"O=c1[nH]c2cc(Nc3ccc(N4CCC(C(F)(F)F)CC4)cc3)ccc2o1 [Compound 433, 5-((4-(4-(trifluoromethyl)piperidin-1-yl)phenyl)amino) benzo[d]oxazol-2(3H)-one]",0.1 to 100,–,–
"CC1CN(c2ccc(Nc3ccc4c(c3)ncn4C)cc2)CC(C)O1 (stereo not drawn) [Compound 434, N-(4-(2,6-dimethylmorpholino)phenyl)-1-methyl-1H-benzo[d]imidazol-5-amine]",0.1 to 100,–,–
CC1CN(c2ccc(Nc3ccc4c(c3)nc(N)n4C)cc2)CC(C)O1 (stereo not drawn) [Compound 435],0.1 to 100,–,–
"CNCCn1c(=O)n(C)c2cc(Nc3ccc(N4CC(C)OC(C)C4)cc3)ccc21 (stereo not drawn) [Compound 436, 5-((4-(2,6-dimethylmorpholino)phenyl)amino)-3-methyl-1-(2-(methylamino)ethyl)-1H-benzo[d]imidazol-2(3H)-one]",0.1 to 100,–,–
"CC1CN(c2ccc(Nc3ccc4oc(=O)[nH]c4c3)cc2)CC(C)O1 (stereo not drawn) [Compound 441, 5-((4-(2,6-dimethylmorpholino)phenyl)amino)benzo[d]oxazol-2(3H)-one]",0.1 to 100,–,–
"CC1CN(c2ccc(Nc3ccc4c(C(N)=O)cn(C)c4c3)cc2)CC(C)O1 (stereo not drawn) [Compound 442, 6-((4-(2,6-dimethylmorpholino)phenyl)amino)-1-methyl-1H-indole-3-carboxamide]",0.1 to 100,–,–
"O=C1COc2cc(Nc3ccc(N4CCC(C(F)(F)F)CC4)cc3Cl)ccc2N1 [Compound 448, 7-({2-chloro-4-[4-(trifluoromethyl)piperidin-1-yl]phenyl}amino)-2,4-dihydro-1,4-benzoxazin-3-one]",–,0.1 to 100,–
"CC1CN(c2ccc(Nc3ccc4c(c3)N(C)C(=O)C4(C)C)cc2)CC(C)O1 (stereo not drawn) [Compound 449, 6-((4-(2,6-dimethylmorpholino)phenyl)amino)-1,3,3-trimethylindolin-2-one]",–,0.1 to 100,–
"CN1C(=O)COc2cc(Nc3ccc(N4CCC(C(F)(F)F)CC4)cc3Cl)ccc21 [Compound 451, 7-((2-chloro-4-(4-(trifluoromethyl)piperidin-1-yl)phenyl)amino)-4-methyl-2H-benzo[b][1,4]oxazin-3(4H)-one]",–,0.1 to 100,–
"Cc1cc(N2CCC(C(F)(F)F)CC2)ncc1Nc1ccc2c(c1)OCC(=O)N2C [Compound 452, 4-methyl-7-((4-methyl-6-(4-(trifluoromethyl)piperidin-1-yl)pyridin-3-yl)amino)-2H-benzo[b][1,4]oxazin-3(4H)-one]",–,0.1 to 100,–
"Cc1cc(N2CCC(C(F)(F)F)CC2)ncc1Nc1ccc2c(c1)OCC(=O)N2 [Compound 453, 7-((4-methyl-6-(4-(trifluoromethyl)piperidin-1-yl)pyridin-3-yl)amino)-2H-benzo[b][1,4]oxazin-3(4H)-one]",–,0.1 to 100,–
"Cc1c(Nc2ccc3c(c2)OCC(=O)N3)ccc(N2CCC(C(F)(F)F)CC2)c1F [Compound 454, 7-((3-fluoro-2-methyl-4-(4-(trifluoromethyl)piperidin-1-yl)phenyl)amino)-2H-benzo[b][1,4]oxazin-3(4H)-one]",–,0.1 to 100,–
"CC1CN(c2ccc(Nc3ccc4c(c3)nnn4C)cc2)CC(C)O1 (stereo not drawn) [Compound 458, N-(4-(2,6-dimethylmorpholino)phenyl)-1-methyl-1H-benzo[d][1,2,3]triazol-5-amine]",–,–,EC50 (Table 3): 0.1 to 100 nM
"O=C1COc2cc(Nc3cnc(N4CCC(C(F)(F)F)CC4)c(F)c3)ccc2N1 [Compound 459, 7-((5-fluoro-6-(4-(trifluoromethyl)piperidin-1-yl)pyridin-3-yl)amino)-2H-benzo[b][1,4]oxazin-3(4H)-one]",–,0.1 to 100,–
"Cc1cc(Nc2ccc3c(c2)OCC(=O)N3CCO)ccc1N1CC(C)OC(C)C1 (stereo not drawn) [Compound 461, 7-((4-(2,6-dimethylmorpholino)-3-methylphenyl)amino)-4-(2-hydroxyethyl)-2H-benzo[b][1,4]oxazin-3(4H)-one]",–,–,EC50 (Table 3): 0.1 to 100 nM
"COc1cc(Nc2cnc3c(c2)OCC(=O)N3C)ccc1N1CCC(C(F)(F)F)CC1 [Compound 464, 7-({3-methoxy-4-[4-(trifluoromethyl)piperidin-1-yl]phenyl}amino)-4-methyl-2H-pyrido[3,2-b][1,4]oxazin-3-one]",–,0.1 to 100,–
"COc1cc(Nc2cnc3c(c2)OCC(=O)N3)ccc1N1CCC(C(F)(F)F)CC1 [Compound 465, 7-((3-methoxy-4-(4-(trifluoromethyl)piperidin-1-yl)phenyl)amino)-2H-pyrido[3,2-b][1,4]oxazin-3(4H)-one]",–,0.1 to 100,–
"O=C1COc2cc(Nc3ccc(N4CCC(C(F)(F)F)CC4)cc3F)ccc2N1 [Compound 466, 7-((2-fluoro-4-(4-(trifluoromethyl)piperidin-1-yl)phenyl)amino)-2H-benzo[b][1,4]oxazin-3(4H)-one]",–,0.1 to 100,–
"Cc1cc(N2CCC(C(F)(F)F)CC2)ccc1Nc1ccc2oc(=O)[nH]c2c1 [Compound 467, 5-((2-methyl-4-(4-(trifluoromethyl)piperidin-1-yl)phenyl)amino) benzo[d]oxazol-2(3H)-one]",–,0.1 to 100,–

# Now from value to molecule, other results behind:
"EC50 (Homo sapiens, Table 2) [nM]","EC50 (Homo sapiens, Table 3) [nM]",SMILES,other results
0.1 to 100,–,"Cc1cc(N2CC(C)OC(C)C2)ccc1Nc1ccc2c(cnn2C)c1 (stereo not drawn) [Compound 437, N-(4-(2,6-dimethylmorpholino)-2-methylphenyl)-1-methyl-1H-indazol-5-amine]",–
0.1 to 100,–,"Cc1cc(N2CC(C)OC(C)C2)ccc1Nc1ccc2c(c1)C(C)(C)C(=O)N2C (stereo not drawn) [Compound 438, 5-((4-(2,6-dimethylmorpholino)-2-methylphenyl)amino)-1,3,3-trimethylindolin-2-one]",–
0.1 to 100,–,"Cc1cc(N2CC(C)OC(C)C2)ccc1Nc1ccc2c(c1)CN(C)C2 (stereo not drawn) [Compound 439, N-(4-(2,6-dimethylmorpholino)-2-methylphenyl)-2-methylisoindolin-5-amine]",–
0.1 to 100,–,"Cc1cc(N2CC(C)OC(C)C2)ccc1Nc1ccc2c(c1)CNC2 (stereo not drawn) [Compound 440, N-(4-(2,6-dimethylmorpholino)-2-methylphenyl)isoindolin-5-amine]",–
0.1 to 100,–,"Cc1cc(N2CC(C)OC(C)C2)ccc1Nc1ccc2[nH]ncc2c1 (stereo not drawn) [Compound 443, N-(4-(2,6-dimethylmorpholino)-2-methylphenyl)-1H-indazol-5-amine]",–
0.1 to 100,–,"Cc1cc(N2CC(C)OC(C)C2)ccc1Nc1ccc2c(c1)c(C(N)=O)cn2C (stereo not drawn) [Compound 444, 5-((4-(2,6-dimethylmorpholino)-2-methylphenyl)amino)-1-methyl-1H-indole-3-carboxamide]",–
0.1 to 100,–,"Cc1cc(N2CC(C)OC(C)C2)ccc1Nc1ccc2nn(C)cc2c1 (stereo not drawn) [Compound 445, N-(4-(2,6-dimethylmorpholino)-2-methylphenyl)-2-methyl-2H-indazol-5-amine]",–
0.1 to 100,–,"Cc1cc(N2CC(C)OC(C)C2)ccc1Nc1ccc2oc(=O)n(C)c2c1 (stereo not drawn) [Compound 446, 5-((4-(2,6-dimethylmorpholino)-2-methylphenyl)amino)-3-methylbenzo[d]oxazol-2(3H)-one]",–
0.1 to 100,–,"Cc1cc(N2CC(C)OC(C)C2)ccc1Nc1ccc2c(c1)ncn2C (stereo not drawn) [Compound 447, N-(4-(2,6-dimethylmorpholino)-2-methylphenyl)-1-methyl-1H-benzo[d]imidazol-5-amine]",–
–,0.1 to 100,"O=C1COc2cc(Nc3ccc(N4CCC(C(F)(F)F)CC4)cc3)cnc2N1 [Compound 450, 7-((4-(4-(trifluoromethyl)piperidin-1-yl)phenyl)amino)-2H-pyrido[3,2-b][1,4]oxazin-3(4H)-one]",–
–,0.1 to 100,"Cc1cc(Nc2ccc3c(c2)OCC(=O)N3CCO)ccc1N1CC(C)OC(C)C1 (stereo not drawn) [Compound 455, 7-((4-(2,6-dimethylmorpholino)-3-methylphenyl)amino)-4-(2-hydroxyethyl)-2H-benzo[b][1,4]oxazin-3(4H)-one]",–
–,0.1 to 100,"Cc1cc(N2CC(C)OC(C)C2)ccc1Nc1ccc2c(c1)OCC(=O)N2CCO (stereo not drawn) [Compound 456, 7-((4-(2,6-dimethylmorpholino)-2-methylphenyl)amino)-4-(2-hydroxyethyl)-2H-benzo[b][1,4]oxazin-3(4H)-one]",–
–,0.1 to 100,"Cc1cc(N2CC(C)OC(C)C2)ccc1Nc1cnc2c(c1)OCC(=O)N2C (stereo not drawn) [Compound 457, 7-((4-(2,6-dimethylmorpholino)-2-methylphenyl)amino)-4-methyl-2H-pyrido[3,2-b][1,4]oxazin-3(4H)-one]",–
–,0.1 to 100,"Cc1cc(N2CCC(C(F)(F)F)CC2)ccc1Nc1cnc2c(c1)OCC(=O)N2 [Compound 460, 7-((2-methyl-4-(4-(trifluoromethyl)piperidin-1-yl)phenyl)amino)-2H-pyrido[3,2-b][1,4]oxazin-3(4H)-one]",–
–,0.1 to 100,"Cc1cc(N2CC(C)OC(C)C2)ccc1Nc1cnc2c(c1)OCC(=O)N2 (stereo not drawn) [Compound 462, 7-((4-(2,6-dimethylmorpholino)-2-methylphenyl)amino)-2H-pyrido[3,2-b][1,4]oxazin-3(4H)-one]",–
–,0.1 to 100,"Cc1cc(Nc2ccc(N3CC(C)OC(C)C3)cc2)cc2c1N(C)C(=O)CO2 (stereo not drawn) [Compound 463, 7-{[4-(2,6-dimethylmorpholin-4-yl)phenyl]amino}-4,5-dimethyl-2H-1,4-benzoxazin-3-one]",–
